The results in this text go back to ChEMBL document CHEMBL5653615 (J Biol Chem, 2013).

Assay [1] has as its target T1, Serine/threonine-protein kinase 3 (Homo sapiens) (UniProt Q13188).
T1 sequence (whole entry): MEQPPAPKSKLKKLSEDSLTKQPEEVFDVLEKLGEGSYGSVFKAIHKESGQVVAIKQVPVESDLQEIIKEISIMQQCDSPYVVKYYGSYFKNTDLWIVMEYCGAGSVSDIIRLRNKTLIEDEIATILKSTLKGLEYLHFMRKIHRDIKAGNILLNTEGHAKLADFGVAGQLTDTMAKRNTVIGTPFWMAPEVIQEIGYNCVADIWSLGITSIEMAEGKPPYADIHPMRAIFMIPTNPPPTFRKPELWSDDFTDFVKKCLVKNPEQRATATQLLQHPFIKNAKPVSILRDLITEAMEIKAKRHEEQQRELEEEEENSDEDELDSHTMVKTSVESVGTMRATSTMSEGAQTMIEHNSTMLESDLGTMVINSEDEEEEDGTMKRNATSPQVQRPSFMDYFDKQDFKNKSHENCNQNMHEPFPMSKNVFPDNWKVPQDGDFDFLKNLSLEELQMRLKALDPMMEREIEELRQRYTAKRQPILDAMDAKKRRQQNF
Briefly: Inhibition of human STK3 at 500 nM by HotSpot assay relative to control.

The target in assay [2] is T2, Ephrin type-B receptor 1 (Homo sapiens) (UniProt P54762).
T2 sequence (whole entry): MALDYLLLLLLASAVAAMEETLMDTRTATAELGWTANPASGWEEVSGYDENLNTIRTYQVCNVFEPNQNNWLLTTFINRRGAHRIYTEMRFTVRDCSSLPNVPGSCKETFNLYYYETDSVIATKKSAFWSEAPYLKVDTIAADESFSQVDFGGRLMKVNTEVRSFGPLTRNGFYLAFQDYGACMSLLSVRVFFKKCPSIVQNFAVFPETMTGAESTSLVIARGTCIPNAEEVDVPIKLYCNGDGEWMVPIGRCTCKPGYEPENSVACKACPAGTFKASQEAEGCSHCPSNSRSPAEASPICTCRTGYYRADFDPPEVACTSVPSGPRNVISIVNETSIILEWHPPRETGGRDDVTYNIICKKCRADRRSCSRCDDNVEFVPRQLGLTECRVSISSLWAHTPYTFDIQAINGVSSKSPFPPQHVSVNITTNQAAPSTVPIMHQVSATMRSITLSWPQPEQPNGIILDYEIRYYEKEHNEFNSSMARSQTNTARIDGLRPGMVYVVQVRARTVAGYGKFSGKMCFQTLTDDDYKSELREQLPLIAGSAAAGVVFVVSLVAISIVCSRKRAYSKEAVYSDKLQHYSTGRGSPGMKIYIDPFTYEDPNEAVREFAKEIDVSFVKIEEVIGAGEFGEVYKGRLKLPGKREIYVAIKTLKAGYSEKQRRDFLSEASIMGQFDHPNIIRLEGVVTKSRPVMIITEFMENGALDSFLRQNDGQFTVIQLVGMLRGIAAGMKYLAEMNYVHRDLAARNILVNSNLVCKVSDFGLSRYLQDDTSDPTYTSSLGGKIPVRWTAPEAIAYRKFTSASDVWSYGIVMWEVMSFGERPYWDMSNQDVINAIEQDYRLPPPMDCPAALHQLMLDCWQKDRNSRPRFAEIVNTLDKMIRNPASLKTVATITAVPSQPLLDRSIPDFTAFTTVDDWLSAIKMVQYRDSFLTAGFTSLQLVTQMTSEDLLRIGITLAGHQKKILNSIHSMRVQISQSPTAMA
Put plainly: Inhibition of human EPHB1 at 500 nM by HotSpot assay relative to control.

Assay [3] concerns the target T3, Protein kinase C epsilon type (Homo sapiens) (UniProt Q02156).
T3 sequence (whole entry): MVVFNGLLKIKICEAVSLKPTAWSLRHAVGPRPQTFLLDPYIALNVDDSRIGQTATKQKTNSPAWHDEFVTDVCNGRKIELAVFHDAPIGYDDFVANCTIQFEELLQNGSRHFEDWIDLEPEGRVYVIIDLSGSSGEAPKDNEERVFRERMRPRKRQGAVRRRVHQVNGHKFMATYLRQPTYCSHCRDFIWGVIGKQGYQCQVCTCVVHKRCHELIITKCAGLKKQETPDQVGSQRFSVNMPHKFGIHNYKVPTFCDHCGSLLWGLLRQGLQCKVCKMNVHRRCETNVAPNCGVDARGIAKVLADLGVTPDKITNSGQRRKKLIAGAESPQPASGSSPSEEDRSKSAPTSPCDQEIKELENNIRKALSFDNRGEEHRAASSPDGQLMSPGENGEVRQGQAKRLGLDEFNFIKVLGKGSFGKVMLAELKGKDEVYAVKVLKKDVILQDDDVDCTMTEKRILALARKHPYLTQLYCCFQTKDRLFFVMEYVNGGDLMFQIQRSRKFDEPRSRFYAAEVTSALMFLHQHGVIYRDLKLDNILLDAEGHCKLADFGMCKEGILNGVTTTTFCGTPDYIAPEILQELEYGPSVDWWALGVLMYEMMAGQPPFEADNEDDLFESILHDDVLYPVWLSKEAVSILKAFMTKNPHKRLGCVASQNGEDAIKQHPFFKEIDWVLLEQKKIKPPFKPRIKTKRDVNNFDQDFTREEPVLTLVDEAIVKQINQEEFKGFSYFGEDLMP
Put plainly: Inhibition of human PKCepsilon at 500 nM by HotSpot assay relative to control.

For assay [4], the target named is T4, Dual specificity tyrosine-phosphorylation-regulated kinase 4 (Homo sapiens) (UniProt Q9NR20).
T4 sequence (whole entry): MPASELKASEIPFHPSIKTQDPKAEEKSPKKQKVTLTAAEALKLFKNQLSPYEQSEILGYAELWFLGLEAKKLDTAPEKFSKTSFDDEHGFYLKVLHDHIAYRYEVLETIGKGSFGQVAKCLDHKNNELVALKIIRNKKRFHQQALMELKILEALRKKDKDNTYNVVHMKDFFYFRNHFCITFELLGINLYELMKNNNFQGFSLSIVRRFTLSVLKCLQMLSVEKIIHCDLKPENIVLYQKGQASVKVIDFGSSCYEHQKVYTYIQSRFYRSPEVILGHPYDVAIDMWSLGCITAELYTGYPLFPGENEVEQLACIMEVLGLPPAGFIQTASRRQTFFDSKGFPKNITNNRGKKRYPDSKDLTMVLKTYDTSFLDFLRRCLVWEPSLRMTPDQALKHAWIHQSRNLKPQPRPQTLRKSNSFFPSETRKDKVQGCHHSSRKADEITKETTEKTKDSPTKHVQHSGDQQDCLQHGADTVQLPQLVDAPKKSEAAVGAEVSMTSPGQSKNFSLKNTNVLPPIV
Put plainly: Inhibition of human DYRK4 at 500 nM by HotSpot assay relative to control.

The target of assay [5] is Casein kinase I isoform alpha (Homo sapiens) (UniProt P48729). Put plainly: Inhibition of human CK1a1 at 500 nM by HotSpot assay relative to control.
Sequence of Casein kinase I isoform alpha (Homo sapiens) (P48729 2-337 limits assumed): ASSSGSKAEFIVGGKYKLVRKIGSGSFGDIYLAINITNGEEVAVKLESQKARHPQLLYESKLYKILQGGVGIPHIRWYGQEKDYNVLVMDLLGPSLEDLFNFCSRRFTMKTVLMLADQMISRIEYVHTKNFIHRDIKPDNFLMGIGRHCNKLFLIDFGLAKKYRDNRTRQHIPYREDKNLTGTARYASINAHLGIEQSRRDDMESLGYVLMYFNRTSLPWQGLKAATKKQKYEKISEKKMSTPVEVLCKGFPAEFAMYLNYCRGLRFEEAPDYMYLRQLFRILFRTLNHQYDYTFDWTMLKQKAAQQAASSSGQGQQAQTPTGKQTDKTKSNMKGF

Take `Nc1n[nH]c2nnc(-c3c(-c4ccccc4)nn4ccccc34)cc12`: the inhibition in assay [1] is -2.01%; in assay [2], 1.38%; in assay [3] it was 27.3%; in assay [4], 4.67%; in assay [5] it was -0.27%.
Consider `Oc1n[nH]c2nnc(-c3c(-c4ccccc4)nn4ccccc34)cc12`, for which the inhibition is 0.75% in assay [1]; 2.52% in assay [2]; 3.42% in assay [3]; 4.52% in assay [4]; -6.61% in assay [5].
